Measured values reported in patent US20130102631A1, “NOVEL MICROBIOCIDAL DIOXIME ETHER DERIVATIVES” (SYNGENTA CROP PROTECTION LLC, priority 2010, published 2013).

Columns and labels:
[1] = system: Thanatephorus cucumeris (Rhizoctonia solani); experiment: Thanatephorus cucumeris (Rhizoctonia solani) / liquid culture (foot rot, damping-off); type: cell-based; conditions: at ≦200 ppm, liquid culture PDB, inhibition of growth photometrically 3-4 days after application, read-out: control of Thanatephorus cucumeris
Protocol: Thanatephorus cucumeris (Rhizoctonia solani)/Liquid Culture (Foot Rot, Damping-Off Mycelia fragments of a newly grown liquid culture of the fungus are directly mixed into nutrient broth (PDB potato dextrose broth). After placing a DMSO solution of the test compounds into a 96-well microtiter, the nutrient broth containing the fungal material was added. The test plates were incubated at 24° C. and the inhibition of growth was determined photometrically 3-4 days after application. […]-2.508 5.561; 2.561; P.57; 2.513; 2.559; 2.558; 2.553; 2.533; 2.530; 2.526; 2.519; 2.517; 2.516; 2.514; 2.512; 2.514

[2] = system: Gaeumannomyces graminis; experiment: Gaeumannomyces graminis / liquid culture (take-all of cereals); type: cell-based; conditions: at ≦200 ppm, liquid culture PDB, inhibition of growth photometrically 4-5 days after application, read-out: control of Gaeumannomyces graminis
In short: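 Mycelial fragments of the fungus in potato dextrose broth were added to wells containing compound in DMSO. Plates were incubated at 24° C, and growth inhibition was read photometrically 4-5 days after application.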

[3] = system: Mycosphaerella arachidis (Cercospora arachidicola); experiment: Mycosphaerella arachidis (Cercospora arachidicola) / liquid culture (early leaf spot); type: cell-based; conditions: at ≦200 ppm, liquid culture PDB, inhibition of growth photometrically 4-5 days after application, read-out: control of Mycosphaerella arachidis
In short: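 Cryostored Cercospora arachidicola conidia were mixed into potato dextrose broth and added to test compound in DMSO. Incubation was at 24° C. Growth inhibition was read photometrically 4-5 days after application.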

[4] = system: Puccinia recondita f. sp. tritici; experiment: Puccinia recondita f. sp. tritici / wheat / leaf disc preventative (brown rust); type: in vivo; conditions: foliar, wheat leaf segments cv Kanzler, inoculated 1 day after application, assessed 7-9 days after application
Protocol: Puccinia recondita f. sp. Tritici/Wheat/Leaf Disc Preventative (Brown Rust): Wheat leaf segments cultivated variety (cv) Kanzler were placed on agar in 24-well plates and sprayed with formulated test compound diluted in water at an application rate of 200 ppm. The leaf disks were inoculated with a spore suspension of the fungus 1 day after application. The inoculated leaf segments were incubated at 19° C. and 75% relative humidity under a light regime of 12/12 h (light/dark) in a climate cabinet and the activity of a compound was assessed as percent disease control compared to untreated when an appropriate level of disease damage appears in untreated check leaf segments (7-9 days after application). […]-2.508; 5.561; 2.561; 2.513; 2.559; 2.556; 2.555; 2.374; 2.544; 2.537; 2.530; 2.525 (fraction B); 2.519; 2.516; 2.514; E/E-5.167; E/E-3.002; 2.512; E/E-2.507

[5] = system: Monographella nivalis (Microdochium nivale); experiment: Monographella nivalis (Microdochium nivale) / liquid culture (foot rot cereals); type: cell-based; conditions: at ≦200 ppm, liquid culture PDB, inhibition of growth photometrically 4-5 days after application, read-out: control of Monographella nivalis
In short: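 Microdochium nivale conidia in potato dextrose broth added to compound delivered in DMSO, then incubated at 24 °C. Growth inhibition measured photometrically 4-5 days after application.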

[6] = system: Mycosphaerella graminicola (Septoria tritici); experiment: Mycosphaerella graminicola (Septoria tritici) / liquid culture (Septoria blotch); type: cell-based; conditions: Zymoseptoria tritici; at ≦200 ppm, liquid culture PDB, inhibition of growth photometrically 4-5 days after application; read-out: control of Mycosphaerella graminicola
[7] = system: Pyrenophora teres; experiment: Pyrenophora teres / barley / leaf disc preventative (net blotch); type: in vivo; conditions: foliar, barley leaf segments cv Hasso, inoculated two days after application, assessed 5-7 days after application
Protocol: Pyrenophora teres/Barley/Leaf Disc Preventative (Net Blotch): Barley leaf segments cv Hasso are placed on agar in a 24-well plate and sprayed with formulated test compound diluted in water at an application rate of 200 ppm. The leaf segments are inoculated with a spore suspension of the fungus two days after application of the test solution. The inoculated leaf segments are incubated at 20° C. and 65% relative humidity under a light regime of 12/12 h (light/dark) in a climate cabinet and the activity of a compound is assessed as disease control compared to untreated when an appropriate level of disease damage appears in untreated check leaf segments (5-7 days after application). […]-2.507; 5.561; 2.561; E/E-2.208; P.57; 2.513; 2.559; 2.558; 2.556; 2.555; 2.374; 2.552; 2.544; 2.537; 2.533; 2.530; 2.528; 2.519; 2.510; 2.516; 2.514; E/E-5.167; E/E-3.002; 2.512

C/C(=N\OCC(C)(C)CO/N=C1\CCCc2ccc(C)nc21)c1cccc(Br)n1 [E/E-2.508]
≥ 80%: inhibition of growth at up to 200 µg/mL [1] | inhibition of growth at up to 200 µg/mL [2] | inhibition of growth at up to 200 µg/mL [3] | pest or weed control at 200 ppm [4] | inhibition of growth at up to 200 µg/mL [5] | inhibition of growth at up to 200 µg/mL [6]

C/C(=N\OCC(C)(C)CO/N=C1\CCCc2ccc(-c3cccc(C)n3)nc21)c1cc(C)cc(C)n1 [Compound 2.559]
≥ 80%: inhibition of growth at up to 200 µg/mL [1] | inhibition of growth at up to 200 µg/mL [2] | inhibition of growth at up to 200 µg/mL [3] | pest or weed control at 200 ppm [7] | pest or weed control at 200 ppm [4] | inhibition of growth at up to 200 µg/mL [5] | inhibition of growth at up to 200 µg/mL [6]

COc1cccc(/C(C)=N/OCC(C)(C)CO/N=C2\CCCc3ccc(C)nc32)n1 [Compound 2.374]
≥ 80%: inhibition of growth at up to 200 µg/mL [2] | inhibition of growth at up to 200 µg/mL [3] | pest or weed control at 200 ppm [7] | pest or weed control at 200 ppm [4] | inhibition of growth at up to 200 µg/mL [5] | inhibition of growth at up to 200 µg/mL [6]

C/C(=N\OCC(C)(C)CO/N=C1\CCCc2ccc(Oc3ccccc3)nc21)c1cc(C)cc(C)n1 [Compound 2.556]
≥ 80%: inhibition of growth at up to 200 µg/mL [2] | inhibition of growth at up to 200 µg/mL [3] | pest or weed control at 200 ppm [7] | pest or weed control at 200 ppm [4] | inhibition of growth at up to 200 µg/mL [5] | inhibition of growth at up to 200 µg/mL [6]

C/C(=N\OCC(C)(C)CO/N=C1\CCCc2ccc(C)nc21)c1ccc2c(n1)CCCC2 [Compound 2.513]
≥ 80%: inhibition of growth at up to 200 µg/mL [1] | inhibition of growth at up to 200 µg/mL [2] | inhibition of growth at up to 200 µg/mL [3] | pest or weed control at 200 ppm [7] | pest or weed control at 200 ppm [4] | inhibition of growth at up to 200 µg/mL [5] | inhibition of growth at up to 200 µg/mL [6]

C/C(=N\OCC(C)(C)CO/N=C1\CCCc2ccc(C)nc21)c1cc(C)cc(C)n1 [E/E-2.168]
≥ 80%: inhibition of growth at up to 200 µg/mL [1] | inhibition of growth at up to 200 µg/mL [2] | inhibition of growth at up to 200 µg/mL [3] | pest or weed control at 200 ppm [7] | pest or weed control at 200 ppm [4] | inhibition of growth at up to 200 µg/mL [5] | inhibition of growth at up to 200 µg/mL [6]

Cc1ccc2c(n1)/C(=N/OCC(C)(C)CO/N=C/c1ccc3ccccc3n1)CCC2 [E/E-2.507]
≥ 80%: inhibition of growth at up to 200 µg/mL [1] | inhibition of growth at up to 200 µg/mL [2] | inhibition of growth at up to 200 µg/mL [3] | pest or weed control at 200 ppm [7] | pest or weed control at 200 ppm [4] | inhibition of growth at up to 200 µg/mL [5] | inhibition of growth at up to 200 µg/mL [6]

C/C(=N\OCCCO/N=C1\CCCc2ccc(C)nc21)c1cccc(-c2ccccc2)n1 [Compound 2.514]
≥ 80%: inhibition of growth at up to 200 µg/mL [1] | inhibition of growth at up to 200 µg/mL [2] | inhibition of growth at up to 200 µg/mL [3] | pest or weed control at 200 ppm [7] | pest or weed control at 200 ppm [4] | inhibition of growth at up to 200 µg/mL [5] | inhibition of growth at up to 200 µg/mL [6]

Cc1ccc2c(n1)/C(=N/OCC(C)(C)CO/N=C/c1cccc(Oc3ccccc3)n1)CCC2 [Compound 2.530]
≥ 80%: inhibition of growth at up to 200 µg/mL [1] | inhibition of growth at up to 200 µg/mL [3] | pest or weed control at 200 ppm [7] | pest or weed control at 200 ppm [4] | inhibition of growth at up to 200 µg/mL [5] | inhibition of growth at up to 200 µg/mL [6]

C/C(=N\OCC1(CO/N=C2\CCCc3ccc(C)nc32)CC1)c1cc(C)cc(C)n1 [E/E-5.167]
≥ 80%: inhibition of growth at up to 200 µg/mL [2] | inhibition of growth at up to 200 µg/mL [3] | pest or weed control at 200 ppm [7] | pest or weed control at 200 ppm [4] | inhibition of growth at up to 200 µg/mL [5] | inhibition of growth at up to 200 µg/mL [6]
